Laboratory results reported in ChEMBL document CHEMBL1139745, “Synthesis and biological study of 4-aminopyrimidine-5-carboxaldehyde oximes as antiproliferative VEGFR-2 inhibitors” (Bioorg Med Chem Lett, 2006).

Legend:
A-375 = assay: Antiproliferative activity against A375 cells; assay type: functional, cell-based; details: Homo sapiens
HeLa [1] = assay: Antiproliferative activity against HeLa cells; assay type: functional, cell-based; details: Homo sapiens
HCT-116 = assay: Antiproliferative activity against HCT116 cells; assay type: functional, cell-based; details: Homo sapiens
HeLa [2] = assay: Cell cycle arrest by accumulation at G2 phase in human HeLa cells at 62.5 nM; assay type: functional
HeLa [3] = assay: Cell cycle arrest in human HeLa cells by accumulation at G1 phase at 62.5 nM; assay type: functional
HeLa [4] = assay: Cell cycle arrest in human HeLa cells by accumulation at S phase at 62.5 nM; assay type: functional
[5] = target: Vascular endothelial growth factor receptor 2 (Homo sapiens, UniProt P35968); assay: Inhibition of VEGFR2
Chain of Vascular endothelial growth factor receptor 2 (P35968 whole entry): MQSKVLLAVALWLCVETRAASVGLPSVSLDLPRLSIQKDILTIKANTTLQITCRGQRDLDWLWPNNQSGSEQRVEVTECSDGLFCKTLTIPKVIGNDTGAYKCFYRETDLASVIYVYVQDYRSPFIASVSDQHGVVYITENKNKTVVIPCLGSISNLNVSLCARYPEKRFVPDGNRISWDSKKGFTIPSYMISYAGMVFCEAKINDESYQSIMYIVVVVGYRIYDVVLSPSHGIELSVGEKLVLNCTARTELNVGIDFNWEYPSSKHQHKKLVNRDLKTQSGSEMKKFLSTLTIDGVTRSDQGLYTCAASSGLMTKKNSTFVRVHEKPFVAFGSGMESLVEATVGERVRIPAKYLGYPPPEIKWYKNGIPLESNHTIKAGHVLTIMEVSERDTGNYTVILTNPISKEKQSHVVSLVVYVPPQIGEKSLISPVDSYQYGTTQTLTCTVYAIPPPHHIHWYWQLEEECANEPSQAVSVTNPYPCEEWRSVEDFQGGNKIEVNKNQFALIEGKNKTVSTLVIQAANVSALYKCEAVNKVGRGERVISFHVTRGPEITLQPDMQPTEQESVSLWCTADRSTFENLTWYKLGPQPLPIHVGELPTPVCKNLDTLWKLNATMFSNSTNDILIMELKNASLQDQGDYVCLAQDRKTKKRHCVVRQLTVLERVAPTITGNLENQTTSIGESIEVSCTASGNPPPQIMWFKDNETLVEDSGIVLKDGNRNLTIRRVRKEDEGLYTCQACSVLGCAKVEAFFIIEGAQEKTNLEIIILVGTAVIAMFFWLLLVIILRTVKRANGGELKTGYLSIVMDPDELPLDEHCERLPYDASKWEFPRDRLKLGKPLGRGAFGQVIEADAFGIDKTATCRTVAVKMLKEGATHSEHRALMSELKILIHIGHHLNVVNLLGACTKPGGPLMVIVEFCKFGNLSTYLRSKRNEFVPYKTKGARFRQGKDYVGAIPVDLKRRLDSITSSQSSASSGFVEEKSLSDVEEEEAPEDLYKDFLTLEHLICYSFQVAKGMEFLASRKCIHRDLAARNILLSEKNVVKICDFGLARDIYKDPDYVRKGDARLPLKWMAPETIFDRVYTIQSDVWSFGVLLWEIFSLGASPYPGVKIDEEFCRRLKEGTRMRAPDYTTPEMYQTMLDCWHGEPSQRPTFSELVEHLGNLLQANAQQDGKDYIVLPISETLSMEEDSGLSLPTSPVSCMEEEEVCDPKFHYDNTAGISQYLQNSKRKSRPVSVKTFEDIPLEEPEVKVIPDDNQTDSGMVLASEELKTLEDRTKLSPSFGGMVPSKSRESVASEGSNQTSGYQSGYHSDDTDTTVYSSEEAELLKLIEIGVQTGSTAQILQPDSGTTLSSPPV

SMILES	IC50 (A-375) [nM]	IC50 (HeLa [1]) [nM]	IC50 (HCT-116) [nM]	Activity (HeLa [2]) [%]	Activity (HeLa [3]) [%]	Activity (HeLa [4]) [%]	IC50 [5] [nM]
CNCCO/N=C/c1c(N)ncnc1Oc1ccc2[nH]c(C)cc2c1F	345	2010	3010				
Cc1cc2c(F)c(Oc3ncnc(N)c3/C=N/OCCO)ccc2[nH]1	372	406	323				
CCO/N=C/c1c(N)ncnc1Oc1ccc2[nH]c(C)cc2c1F	27	32	36				
CCCO/N=C/c1c(N)ncnc1Oc1ccc2[nH]c(C)cc2c1F	28	40	30				
C=CCO/N=C/c1c(N)ncnc1Oc1ccc2[nH]c(C)cc2c1F	21	42	40	99.76	0.24	0	
Cc1cc2c(F)c(Oc3ncnc(N)c3/C=N/O)ccc2[nH]1	492	472	1140				33
CO/N=C/c1c(N)ncnc1Oc1ccc2c(ccn2C)c1	326	375	749				
COCCCO/N=C/c1c(N)ncnc1Oc1ccc2[nH]c(C)cc2c1F	300	346	438				
CO/N=C/c1c(N)ncnc1Oc1ccc2[nH]cc(C)c2c1	132	306	385				
Cc1cc2c(F)c(Oc3ncnc(N)c3/C=N/OCCCO)ccc2[nH]1	336	362	452				
COCCO/N=C/c1c(N)ncnc1Oc1ccc2[nH]c(C)cc2c1F	233	308	387				
CO/N=C/c1c(N)ncnc1Oc1ccc2[nH]ccc2c1F	492	401	365				
CCCCO/N=C/c1c(N)ncnc1Oc1ccc2[nH]c(C)cc2c1F	446	607	1000				
Cc1cc2c(F)c(Oc3ncnc(N)c3/C=N/OCCN3CCCC3)ccc2[nH]1	2160	4220	4610				
CO/N=C/c1c(N)ncnc1Oc1ccc2cccnc2c1	886	1820	2620				
CO/N=C/c1c(N)ncnc1Oc1ccc2[nH]c(C)cc2c1	356	388	386				
Cc1cc2c(F)c(Oc3ncnc(N)c3/C=N/OCC3CCCCC3)ccc2[nH]1	4920	22700	16100				
CO/N=C/c1c(N)ncnc1Oc1ccc2[nH]ccc2c1	783	1870	3520				
CO/N=C/c1c(N)ncnc1Oc1ccc2ncccc2c1	1820	3430	2870				
CO/N=C/c1c(N)ncnc1Oc1cc2cc[nH]c2cc1F	327	382	422				
Cc1cc2c(F)c(Oc3ncnc(N)c3/C=N/OCc3ccccc3)ccc2[nH]1	62	266	311				
